The structures appear in SMILES notation. Bridge positions count the residues as written; N and C are the ends. Square brackets hold non-standard residues; d marks the D form. Peptide text beside a SMILES is read from it. NMeY = CN[C@@H](Cc1ccc(O)cc1)C(=O)O; NMeF = CN[C@@H](Cc1ccccc1)C(=O)O; NMeN = CN[C@@H](CC(N)=O)C(=O)O; NMeL = CN[C@@H](CC(C)C)C(=O)O; NMeS = CN[C@@H](CO)C(=O)O; Sar = CNCC(=O)O

For orientation: IC50 means the concentration that gives 50% inhibition.

For this assay, the target named is High affinity nerve growth factor receptor (Homo sapiens, UniProt P04629). Briefly: Inhibition of human TrkA assessed as beta-galactosidase activity pretreated with NGF followed by […] and measured after 180 mins by pathhunter assay.
High affinity nerve growth factor receptor, sequence (P04629 whole entry): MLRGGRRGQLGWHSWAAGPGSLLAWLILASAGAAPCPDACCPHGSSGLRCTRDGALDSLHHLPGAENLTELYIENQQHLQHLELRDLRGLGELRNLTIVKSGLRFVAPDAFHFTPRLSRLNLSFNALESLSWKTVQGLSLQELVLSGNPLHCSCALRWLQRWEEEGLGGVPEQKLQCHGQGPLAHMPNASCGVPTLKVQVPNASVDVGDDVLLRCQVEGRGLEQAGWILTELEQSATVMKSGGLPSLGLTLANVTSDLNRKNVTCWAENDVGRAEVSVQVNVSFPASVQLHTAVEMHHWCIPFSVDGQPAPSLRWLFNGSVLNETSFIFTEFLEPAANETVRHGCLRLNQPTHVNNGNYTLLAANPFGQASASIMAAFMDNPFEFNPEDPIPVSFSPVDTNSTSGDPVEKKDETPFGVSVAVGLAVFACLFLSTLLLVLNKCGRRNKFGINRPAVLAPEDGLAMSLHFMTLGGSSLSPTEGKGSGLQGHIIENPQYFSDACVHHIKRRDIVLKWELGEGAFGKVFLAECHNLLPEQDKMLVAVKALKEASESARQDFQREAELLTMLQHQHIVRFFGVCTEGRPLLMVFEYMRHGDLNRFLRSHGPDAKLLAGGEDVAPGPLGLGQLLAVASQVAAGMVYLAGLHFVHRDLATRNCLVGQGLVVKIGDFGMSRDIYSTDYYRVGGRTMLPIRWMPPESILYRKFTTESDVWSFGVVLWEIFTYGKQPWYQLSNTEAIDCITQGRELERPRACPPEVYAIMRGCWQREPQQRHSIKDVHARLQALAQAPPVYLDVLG
Regarding `CC(C)C[C@@H]1NC(=O)[C@H](CC(N)=O)NC(=O)CNC(=O)[C@H](Cc2ccccc2)N(C)C(=O)CNC(=O)[C@H](Cc2c[nH]c3ccccc23)NC(=O)[C@H](Cc2ccc(O)cc2)NC(=O)[C@H](C)NC(=O)[C@H](C(C)C)NC(=O)[C@H](CO)NC(=O)[C@H](CO)NC(=O)[C@H](Cc2ccccc2)NC(=O)CSC[C@@H](C(=O)NCC(N)=O)NC(=O)[C@H](Cc2c[nH]cn2)NC(=O)[C@H](CC(N)=O)NC(=O)[C@H](Cc2ccc(O)cc2)NC(=O)[C@H](Cc2ccc(O)cc2)NC(=O)[C@H](C(C)C)NC1=O` ({CH2CO}-FSSVAYWG[NMeF]GNLVYYNHCG-NH2; thioether N-18), the IC50 was determined as 26 nM. In the case of `CC(C)C[C@@H]1NC(=O)[C@H](CC(N)=O)NC(=O)CNC(=O)[C@H](Cc2ccccc2)N(C)C(=O)CNC(=O)[C@H](Cc2c[nH]c3ccccc23)NC(=O)[C@H](Cc2ccc(O)cc2)NC(=O)[C@H](CO)NC(=O)[C@H](C(C)C)NC(=O)[C@H](CO)NC(=O)[C@H](CO)NC(=O)[C@H](Cc2ccccc2)NC(=O)CSC[C@@H](C(=O)NCC(N)=O)NC(=O)[C@H](Cc2c[nH]cn2)NC(=O)[C@H](CC(N)=O)NC(=O)[C@H](Cc2ccc(O)cc2)NC(=O)[C@H](Cc2c[nH]c3ccccc23)NC(=O)[C@H](C(C)C)NC1=O` ({CH2CO}-FSSVSYWG[NMeF]GNLVWYNHCG-NH2; thioether N-18), the IC50 came to 41 nM. The result for `CC(C)C[C@@H]1NC(=O)[C@H](CC(N)=O)NC(=O)CNC(=O)[C@H](Cc2ccccc2)N(C)C(=O)CNC(=O)[C@H](Cc2c[nH]c3ccccc23)NC(=O)[C@H](Cc2ccc(O)cc2)NC(=O)[C@H](CO)NC(=O)[C@H](C(C)C)NC(=O)[C@H](CO)NC(=O)[C@H](CO)NC(=O)[C@H](Cc2ccccc2)NC(=O)CSC[C@@H](C(=O)N(C)CC(N)=O)NC(=O)[C@H](Cc2c[nH]cn2)NC(=O)[C@H](CC(N)=O)NC(=O)[C@H](Cc2ccc(O)cc2)NC(=O)[C@H](Cc2c[nH]c3ccccc23)NC(=O)[C@H](C(C)C)NC1=O` ({CH2CO}-FSSVSYWG[NMeF]GNLVWYNHC[Sar]-NH2; thioether N-18) reads 15 nM; that for `CC(C)C[C@@H]1NC(=O)[C@H](CC(N)=O)NC(=O)CNC(=O)[C@H](Cc2ccccc2)N(C)C(=O)CNC(=O)[C@H](Cc2c[nH]c3ccccc23)NC(=O)[C@H](Cc2ccc(O)cc2)NC(=O)[C@H](CO)NC(=O)[C@H](C(C)C)NC(=O)[C@H](CO)NC(=O)[C@H](CO)NC(=O)[C@H](Cc2ccccc2)NC(=O)CSC[C@@H](C(=O)NCC(N)=O)NC(=O)[C@H](Cc2c[nH]cn2)NC(=O)[C@H](CC(N)=O)N(C)C(=O)[C@H](Cc2ccc(O)cc2)NC(=O)[C@H](Cc2c[nH]c3ccccc23)NC(=O)[C@H](C(C)C)NC1=O` ({CH2CO}-FSSVSYWG[NMeF]GNLVWY[NMeN]HCG-NH2; thioether N-18), 48 nM; that for `CC(C)C[C@@H]1NC(=O)[C@H](CC(N)=O)NC(=O)CNC(=O)[C@H](Cc2ccccc2)N(C)C(=O)CNC(=O)[C@H](Cc2c[nH]c3ccccc23)NC(=O)[C@H](Cc2ccc(O)cc2)NC(=O)[C@H](CO)NC(=O)[C@H](C(C)C)NC(=O)[C@H](CO)NC(=O)[C@H](CO)NC(=O)[C@H](Cc2ccccc2)NC(=O)CSC[C@@H](C(=O)NCC(N)=O)NC(=O)[C@H](Cc2cnc[nH]2)NC(=O)[C@H](CC(=O)O)NC(=O)[C@H](Cc2ccc(O)cc2)NC(=O)[C@H](Cc2ccc(O)cc2)NC(=O)[C@H](C(C)C)NC1=O` ({CH2CO}-FSSVSYWG[NMeF]GNLVYYDHCG-NH2; thioether N-18), 24 nM. With `CC(C)C[C@@H]1NC(=O)[C@H](CC(N)=O)NC(=O)CNC(=O)[C@H](Cc2ccccc2)N(C)C(=O)CNC(=O)[C@H](Cc2c[nH]c3ccccc23)NC(=O)[C@H](Cc2ccc(O)cc2)NC(=O)[C@H](CO)NC(=O)[C@H](C(C)C)NC(=O)[C@H](CO)NC(=O)[C@H](CO)NC(=O)[C@H](Cc2ccccc2)NC(=O)CSC[C@@H](C(=O)NCC(N)=O)NC(=O)[C@H](Cc2c[nH]cn2)NC(=O)[C@H](CC(N)=O)NC(=O)[C@H](Cc2ccc(O)cc2)NC(=O)[C@H](Cc2ccc(O)cc2)NC(=O)[C@H](C(C)C)NC1=O` ({CH2CO}-FSSVSYWG[NMeF]GNLVYYNHCG-NH2; thioether N-18) the figure was 6 nM; with `CC(C)C[C@@H]1NC(=O)[C@H](CC(N)=O)NC(=O)CNC(=O)[C@H](Cc2ccccc2)N(C)C(=O)CNC(=O)[C@H](Cc2c[nH]c3ccccc23)NC(=O)[C@H](Cc2ccc(O)cc2)NC(=O)[C@H](CO)NC(=O)[C@H](C(C)C)NC(=O)[C@H](CO)NC(=O)[C@H](CO)NC(=O)[C@H](Cc2ccccc2)NC(=O)CSC[C@@H](C(=O)NCC(N)=O)NC(=O)[C@H](Cc2c[nH]cn2)NC(=O)[C@H](CO)NC(=O)[C@H](Cc2ccc(O)cc2)NC(=O)[C@H](Cc2ccc(O)cc2)NC(=O)[C@H](C(C)C)NC1=O` ({CH2CO}-FSSVSYWG[NMeF]GNLVYYSHCG-NH2; thioether N-18), 186 nM. The result for `CC(C)C[C@H]1C(=O)N[C@@H](C(C)C)C(=O)N[C@@H](Cc2c[nH]c3ccccc23)C(=O)N[C@@H](Cc2ccc(O)cc2)C(=O)N[C@@H](CC(N)=O)C(=O)N[C@@H](Cc2c[nH]cn2)C(=O)N[C@H](C(=O)NCC(N)=O)CSCC(=O)N[C@@H](Cc2ccccc2)C(=O)N[C@@H](CO)C(=O)N[C@@H](CO)C(=O)N[C@@H](C(C)C)C(=O)N[C@@H](CO)C(=O)N[C@@H](Cc2ccc(O)cc2)C(=O)N[C@@H](Cc2c[nH]c3ccccc23)C(=O)NCC(=O)N(C)[C@@H](Cc2ccccc2)C(=O)NCC(=O)N[C@@H](CC(N)=O)C(=O)N1C` ({CH2CO}-FSSVSYWG[NMeF]GN[NMeL]VWYNHCG-NH2; thioether N-18) reads 81 nM.

`CC(C)C[C@@H]1NC(=O)[C@H](CC(N)=O)NC(=O)CNC(=O)[C@H](Cc2ccccc2)N(C)C(=O)CNC(=O)[C@H](Cc2c[nH]c3ccccc23)NC(=O)[C@H](Cc2ccc(O)cc2)N(C)C(=O)[C@H](CO)NC(=O)[C@H](C(C)C)NC(=O)[C@H](CO)NC(=O)[C@H](CO)NC(=O)[C@H](Cc2ccccc2)NC(=O)CSC[C@@H](C(=O)NCC(N)=O)NC(=O)[C@H](Cc2c[nH]cn2)NC(=O)[C@H](CC(N)=O)NC(=O)[C@H](Cc2ccc(O)cc2)NC(=O)[C@H](Cc2c[nH]c3ccccc23)NC(=O)[C@H](C(C)C)NC1=O` ({CH2CO}-FSSVS[NMeY]WG[NMeF]GNLVWYNHCG-NH2; thioether N-18): the IC50 stood at 22 nM.

`CC(C)C[C@@H]1NC(=O)[C@H](CC(N)=O)NC(=O)CNC(=O)[C@H](Cc2ccccc2)N(C)C(=O)CNC(=O)[C@H](Cc2c[nH]c3ccccc23)NC(=O)[C@H](Cc2ccc(O)cc2)NC(=O)[C@H](CO)NC(=O)[C@H](C(C)C)NC(=O)[C@H](CO)NC(=O)[C@H](CO)N(C)C(=O)[C@H](Cc2ccccc2)NC(=O)CSC[C@@H](C(=O)NCC(N)=O)NC(=O)[C@H](Cc2c[nH]cn2)NC(=O)[C@H](CC(N)=O)NC(=O)[C@H](Cc2ccc(O)cc2)NC(=O)[C@H](Cc2c[nH]c3ccccc23)NC(=O)[C@H](C(C)C)NC1=O` ({CH2CO}-F[NMeS]SVSYWG[NMeF]GNLVWYNHCG-NH2; thioether N-18): the IC50 came out at 13 nM.

Source of the values: ChEMBL document CHEMBL6083183, “Discovery and Hit to Lead Optimization of Macrocyclic Peptides as Novel Tropomyosin Receptor Kinase A Antagonists” (J Med Chem, 2024).
